Test results taken from patent US6790968B1, “Substance FKI-0076 and process for producing the same” (The Kitasato Institute, priority 2002, dated 2004).
Values after ≈ are worked out from the molar mass of the structure shown.

Key:
Type in all cases: cell-based
Candida albicans KF1 [1] = assay: Enhanced activity of azole antifungal agent, paper disc method; settings: 100 μg, 27° C., 24 hours
Description: (§1) Enhanced activity of azole antifungal agent is determined by the following method. Candida albicans KF1 and Saccharomyces cerevisiae KF26 (ATCC 9763) were used. Candida albicans KF1 was cultured in Waksman broth (glucose 2.0%, peptone 0.5%, meat extract 0.5%, and NaCl 0.5%, pH 7.0) and Saccharomyces cerevisiae KF26 was cultured in potato broth (glucose 1.0%, peptone 0.5% and potato extract 100 ml). Both strains were cultured at 27° C. for 40 hours. Subsequently, each strain was inoculated in GY agar medium (glucose 1.0%, yeast extract 0.5% and agar 0.8%, pH 6.0). […]. Miconazole (Sigma Chemicals, Inc.) was used as the azole antifungal agent. […] Activities were assessed using paper disc ([…]: 8 mm, ADVANTEC Inc.). After being cultured at 27° C. for 24 hours, the diameter of the inhibitory zone was measured for each organism.

[2] = tested on: Saccharomyces cerevisiae KF26 (ATCC 9763); assay: as above; settings: 100 μg, 27° C., 24 hours
Description: as §1

[3] = tested on: Bacillus subtilis KB27 (ATCC6633); assay: MIC, microbroth dilution method; settings: ATCC6633, 24 h
[4] = tested on: Staphylococcus aureus KB210 (ATCC6538P); assay: MIC, microbroth dilution method; settings: 24 h
[5] = tested on: Micrococcus luteus KB40 (ATCC9431); assay: MIC, microbroth dilution method; settings: ATCC9431, 24 h
[6] = tested on: Mycobacterium smegmatis KB42 (ATCC607); assay: MIC, microbroth dilution method; settings: Mycolicibacterium smegmatis, ATCC607, 24 h
[7] = tested on: Escherichia coli KB176 (IF012734); assay: MIC, microbroth dilution method; settings: 24 h
[8] = tested on: Pseudomonas aeruginosa KB105 (IF03080); assay: MIC, microbroth dilution method; settings: 24 h
[9] = tested on: Xanthomonas campestris pv. oryzae KB88; assay: microbe, parasite or virus in culture; settings: 24 h
[10] = tested on: Acholeplasma laidlawii KB174; assay: MIC, microbroth dilution method; settings: KB174, 24 h
Pyricularia oryzae KB180 = assay: microbe, parasite or virus in culture; settings: KB180, 48 h
[11] = tested on: Aspergillus niger KB103 (ATCC6275); assay: MIC, microbroth dilution method; settings: ATCC6275, 48 h
[12] = tested on: Mucor racemosus KF223 (IF04581); assay: MIC, microbroth dilution method; settings: 24 h
Candida albicans KF1 [13] = assay: MIC, microbroth dilution method; settings: KF1, 24 h
[14] = tested on: Saccharomyces cerevisiae KF26 (ATCC9763); assay: MIC, microbroth dilution method; settings: ATCC9763, 24 h
[15] = miconazole 0.1 μg/ml added to GY agar
[16] = without addition of miconazole, GY agar

With `COC(=O)c1cc(OC)cc(OC)c1C(=O)c1coc(CC(C)OC(C)=O)cc1=O` (centres unmarked) [FKI-0076 substance] the inhibition ring (Candida albicans KF1 [1]; [15]) was 15 mm, the inhibitory ring (Candida albicans KF1 [1]; [16]) was “did not show an inhibitory ring” and the inhibition ring [2, 15] was 25 mm. For the same molecule, the inhibitory ring [2, 16] was “did not show an inhibitory ring”, the MIC [3] was over 125 µg/mL and the MIC [4] was over 125 µg/mL. The MIC [5] was over 125 µg/mL, the MIC [6] was over 125 µg/mL and the MIC [7] was over 125 µg/mL. It also gave an MIC [8] of over 125 µg/mL, an MIC [9] of over 125 µg/mL and an MIC [10] of 125 µg/mL (≈ 299 µM). The MIC (Pyricularia oryzae KB180) was 125 µg/mL (≈ 299 µM), the MIC [11] was over 125 µg/mL and the MIC [12] was over 125 µg/mL. For the same molecule, the MIC (Candida albicans KF1 [13]) was over 125 µg/mL and the MIC [14] was over 125 µg/mL.
